Paper PMC6270778, “Novel Cinnamic Acid Derivatives as Antioxidant and Anticancer Agents: Design, Synthesis and Modeling Studies” (Molecules, 2014)
“And” between values parts separate entries of the source, which are not always exact repeats. Equal values may be shown once.

Legend:
soybean lipoxygenase = target: T1, soybean lipoxygenase (Glycine max, UniProt P08170); experiment: Soybean lipoxygenase inhibition study in vitro (UV-based enzyme assay); type: biochemical; conditions: for IC50: sodium linoleate 0.1 mM, read-out: LOX IC50 (±SD); for inhibition at 10 µM: 0.01 mM, read-out: LOX inhibition % (±SD)
T1 construct: purchased Sigma Chemical, Co. (St. Louis, MO, USA)
T1 sequence (P08170 1-839): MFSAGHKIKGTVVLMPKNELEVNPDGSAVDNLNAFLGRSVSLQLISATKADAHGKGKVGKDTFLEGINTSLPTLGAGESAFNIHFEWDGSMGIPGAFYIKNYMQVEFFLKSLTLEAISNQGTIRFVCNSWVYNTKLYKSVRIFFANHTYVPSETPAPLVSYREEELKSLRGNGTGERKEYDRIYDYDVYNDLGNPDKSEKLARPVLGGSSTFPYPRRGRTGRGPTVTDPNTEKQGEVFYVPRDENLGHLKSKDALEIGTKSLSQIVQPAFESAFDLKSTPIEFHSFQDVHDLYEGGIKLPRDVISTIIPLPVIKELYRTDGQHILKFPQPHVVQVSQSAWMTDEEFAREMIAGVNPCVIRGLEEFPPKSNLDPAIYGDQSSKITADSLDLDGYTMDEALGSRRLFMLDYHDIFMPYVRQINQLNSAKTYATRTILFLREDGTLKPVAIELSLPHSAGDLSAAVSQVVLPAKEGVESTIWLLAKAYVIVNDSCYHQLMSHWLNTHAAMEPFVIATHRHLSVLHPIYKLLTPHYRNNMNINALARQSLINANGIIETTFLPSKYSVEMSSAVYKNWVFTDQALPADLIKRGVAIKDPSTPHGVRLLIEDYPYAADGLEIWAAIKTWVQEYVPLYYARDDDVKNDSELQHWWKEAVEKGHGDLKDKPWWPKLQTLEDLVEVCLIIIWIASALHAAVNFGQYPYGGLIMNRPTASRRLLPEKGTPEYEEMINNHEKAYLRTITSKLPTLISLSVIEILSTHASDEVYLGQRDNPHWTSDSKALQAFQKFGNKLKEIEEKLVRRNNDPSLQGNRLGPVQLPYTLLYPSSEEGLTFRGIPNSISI
Procedure: The evaluation of the novel acids against soybean lipoxygenase LOX was accomplished by the UV-based enzyme assay of Pontiki and Hadjipavlou-Litina. This assay may be used as a qualitative or semi-quantitative screen for such activity.
In vitro inhibitory LOX assay is accomplished as described previously. The novel derivatives for testing (stock solutions 10 mM in DMSO) were incubated at room temperature with sodium linoleate (0.1 mM) and 0.2 mL of LOX enzyme solution (1/9 × 10^−4w/v in saline). The conversion of sodium linoleate to 13-hydroperoxylinoleic acid was measured at 234 nm and compared with the reference inhibitor. Several concentrations were used for the IC50 determination (Table 2).

[1] = Superoxide radical scavenging activity (non-enzymatic, PMS/NADH, NBT method); conditions: 0.1 mM; no = no action under the used experimental conditions
Procedure: The superoxide anion radical (O2^−·) is less toxic than the hydroxyl radical, but still being one of the most known toxic ROS. Two different experimental assays are followed for the determination of superoxide anion radical scavenging activity: (i) one involves an enzymatic production of superoxide anions and (ii) the other is supported by a non- enzymatic procedure. Herein the test is performed at 0.1 mM concentration, generating superoxide anion radicals by a non-enzymatically assay (Table 3). Compound 1i presented the highest activity, followed by compound 1ii (75% and 50%, respectively).
Superoxide radicals were produced non-enzymatically by mixing PMS, NADH and air–oxygen. The nitroblue tetrazolium method was used for the estimation of the produced radicals. The reaction mixture containing compounds (0.1 mM), 3 μM PMS, 78 μM NADH, and 25 μM NBT in 19 μM phosphate buffer pH 7.4 was incubated for 2 min at room temperature. The acrylic acids were preincubated for 2 min before adding NADH (Table 4) and the absorption was recorded at 560 nm.

[2] = ABTS+ decolorization assay; conditions: 0.1 mM
Procedure: The ABTS^•+ is derived from the oxidation of ABTS by potassium persulfate. It is a decolorization assay. The addition of electron-donating antioxidants leads to ABTS^•+ reduction. The chemistry taking place involves the direct generation of the ABTS^•+ with no involvement of an intermediary radical.
In this assay, ethanol is used for the dilution of the ABTS^+• solution. ABTS is dissolved in water to a 7 mM and reacts with 2.45 mM […] to produce the ABTS radical cation (ABTS^+•) by allowing the mixture to stand in the dark at room temperature for 12–16 h before use. Ten μL of diluted ABTS^+• solution (734 nm) is added to 10 μL of antioxidant compounds or Trolox standards (final concentration 0–0.1 mM) in ethanol and the absorbance is measured at 30 °C exactly 1 min after the initial mixing (Table 3).

Structure (SMILES)	IC50 (soybean lipoxygenase) [µM]	O2−· (%) (±SD) [1]	ABTS+· (%) (±SD) [2]	melting point [°C]	inhibition at 10 µM (soybean lipoxygenase) [%]
N#Cc1ccc(C=C(C(=O)O)c2ccccc2)cc1 [Compound 1i, 3-(4-Cyanophenyl)-2-phenylacrylic acid]	60 ± 0.4	75% and 75 ± 1.0%	26 ± 0.4%	155 to 157	–
N#Cc1ccc(C=CC(=O)O)cc1 [Compound 1ii, 3-(4-Cyanophenyl)acrylic acid]	–	50% and 50 ± 0.5%	47.4% and 47 ± 0.8%	258 to 260	27
O=C(O)C(=CC=Cc1ccc([N+](=O)[O-])cc1)c1ccccc1 [Compound 2i, 5-(4-Nitrophenyl)-2-phenylpenta-2,4-dienoic acid]	66.5 ± 1.2	no	26 ± 0.5%	163 to 165	–
O=C(O)C=CC=Cc1ccc([N+](=O)[O-])cc1 [Compound 2ii, 5-(4-Nitrophenyl)penta-2,4-dienoic acid]	–	no	35 ± 0.9%	170 to 172	31
O=C(O)C(=CC=Cc1ccccc1)c1ccccc1 [Compound 3i, 2,5-Diphenylpenta-2,4-dienoic acid]	74 ± 1.7	no	26 ± 0.8%	145 to 147	–
O=C(O)C=CC=Cc1ccccc1 [Compound 3ii, 5-Phenylpenta-2,4-dienoic acid]	–	no	31 ± 1.1%	–	24
O=C(O)C(=CC(Br)=Cc1ccccc1)c1ccccc1 [Compound 4i, 4-Bromo-2,5-diphenylpenta-2,4-dienoic acid]	74 ± 1.8	no	24 ± 0.5%	135 to 136	–
O=C(O)C=CC(Br)=Cc1ccccc1 [Compound 4ii, 4-Bromo-5-phenylpenta-2,4-dienoic acid]	10 ± 0.05	no	26 ± 0.4%	169 to 171	–
